Paper PMC10975543, “Redox Reactivity of Nonsymbiotic Phytoglobins towards Nitrite” (Molecules, 2024)

Target: T1, AtHb3 (Arabidopsis thaliana, UniProt Q67XG0)
T1 construct: gene GLB3; recombinant in E. coli BL21(DE3), N-terminal 8xHis-MBP tag, TEV cleaved; class 3 truncated Hb; ferric (met) heme form
T1 sequence (Q67XG0 1-175): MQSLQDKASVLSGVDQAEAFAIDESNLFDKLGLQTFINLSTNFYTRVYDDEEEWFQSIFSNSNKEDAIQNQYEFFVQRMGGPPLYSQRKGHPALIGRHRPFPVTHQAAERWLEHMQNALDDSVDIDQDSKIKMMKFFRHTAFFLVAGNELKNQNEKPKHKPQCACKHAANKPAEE
Assay: UV-vis titration of the Soret band at […] nm
Type: binding

**Q.** For O=NO [nitrite], which Kd is on record?
**A.** Its Kd is 1500 ± 500 µM.
